From US7276510B2, “HIV replication inhibitors” (Janssen Pharmaceutica, Inc., priority 2000, dated 2007) come the findings set out here.

Counter-ions that a name gives are not always drawn. Bounds are passed on as bounds.

In series [1] the test system is HIV-infected MT-4 cells. Kind of series: Inhibition of the HIV-induced cytopathic effect in MT-4 cells (MTT). In kind it is cell-based. Particulars: for SI (selectivity index, ratio of CC50 to IC50): CC50/IC50 in MT-4 cells; for IC50: Human immunodeficiency virus 1, MT4, read-out: IC50 (50% inhibitory concentration; dose achieving 50% protection), HIV-infected MT-4 cells, MTT, OD 540 nm. As to the method: (§1) A rapid, sensitive and automated assay procedure was used for the in vitro evaluation of anti-HIV agents. An […] T4-cell line, MT-4, which was previously shown (Koyanagi et al., Int. J. Cancer, 36, 445-451, 1985) to be highly susceptible to and permissive for HIV infection, served as the target cell line. Inhibition of the HIV-induced cytopathic effect was used as the end point. The viability of both HIV- and mock-infected cells was assessed spectrophotometrically via the in situ reduction of 3-(4,5-dimethylthiazol-2-yl)-2,5-diphenyltetrazolium bromide (MTT). […] The percent protection achieved by the compound in HIV-infected cells was calculated by the following formula:
(§2) [formula] whereby (ODT)HIV is the optical density measured with a given concentration of the test compound in HIV-infected cells; (ODC)HIV is the optical density measured for the control untreated HIV-infected cells; (ODC)MOCK is the optical density measured for the control untreated mock-infected cells; all optical density values were determined at 540 nm. […] The ratio of CC50 to IC50 was defined as the selectivity index (SI).
(In general: Damage to the host cells serves as the signal in cytopathic effect assays.)

The nature of series [2]: Cytotoxicity in mock-infected MT-4 cells (MTT). In kind it is cell-based. To be noted: human, OD 540 nm. On the procedure:
as §1, §2

Regarding `N#Cc1ccc(Nc2nc(Cc3c(Cl)cccc3Cl)nc(N3CC(O)CO3)n2)cc1` (stereo not shown) (as salt: trifluoroacetate) [Compound 11], the melting point (usually the temperature of the solid-liquid transition) was determined as 175 °C.
Compound `C=CCONc1nc(Cc2c(Cl)cccc2Cl)nc(Nc2ccc(C#N)cc2)n1` (as salt: trifluoroacetate) [Compound 43] came in with a melting point of 225 to 227 °C.
In turn, `N#Cc1ccc(Nc2nc(Cl)nc(Cc3c(Cl)cccc3Cl)n2)cc1` [Compound 1, 4-[[4-chloro-6-[(2,6-dichlorophenyl)methyl]-1,3,5-triazin-2-yl]amino]-benzonitrile] gave a melting point of 243 to 244 °C.
Regarding `COCc1cc(Oc2c(C)cc(C#N)cc2C)nc(Nc2ccc(C#N)cc2)n1` [Compound 2], the melting point lay in the range of 203 to 204 °C. Moreover, in series [1], the “SI (selectivity index, ratio of CC50 to IC50)” value is listed as 31621 and the IC50 amounted to 0.00159 µM. Besides, the midpoint of cytotoxicity in series [2], the CC50, lay at 50.1 µM.
For `COCc1cc(Nc2cc(C)c(F)cc2Cl)nc(Nc2ccc(C#N)cc2)n1` [Compound 3] the same measures were 213 to 214 °C, more than 1996, 0.0501 µM and more than 100 µM.
For `N#Cc1ccc(Nc2nc(Cc3c(Cl)cccc3Cl)nc(N3C(=O)COCC3=O)n2)cc1` [Compound 4] the same measures were 268 to 269 °C, 25197, 0.00158 µM and 39.8 µM.
Compound `N#Cc1ccc(Nc2nc(C#N)nc(Cc3c(Cl)cccc3Cl)n2)cc1` [Compound 5] displayed a melting point of 221 to 230 °C. In addition, in series [1], the “SI (selectivity index, ratio of CC50 to IC50)” value came to 501 and the IC50 was found to be 0.0199 µM. Besides, the CC50 (usually the concentration that lowers cell viability or growth by half) in series [2] is 10 µM.
The compound `N#Cc1ccc(Nc2nc(S)nc(Cc3c(Cl)cccc3Cl)n2)cc1` [Compound 6] returned a melting point of 254 to 255 °C.
Take `CSc1nc(Cc2c(Cl)cccc2Cl)nc(Nc2ccc(C#N)cc2)n1` [Compound 7]: the melting point lay in the range of 184 to 185 °C. In series [1], the “SI (selectivity index, ratio of CC50 to IC50)” value is 1990 and the IC50 was 0.02 µM. The same compound yielded a CC50 in series [2] of 39.8 µM.
As for `C[S+]([O-])c1nc(Cc2c(Cl)cccc2Cl)nc(Nc2ccc(C#N)cc2)n1` (stereo not shown) [Compound 8], the melting point lay within 219 to 221 °C.
In turn, `COc1nc(Cc2c(Cl)cccc2Cl)nc(Nc2ccc(C#N)cc2)n1` [Compound 9] registered a melting point of 198 to 199 °C. Besides, in series [1], the “SI (selectivity index, ratio of CC50 to IC50)” value is listed as more than 10000 and the IC50 is 0.01 µM. Besides, in series [2], the CC50 was more than 100 µM.
Consider `N#Cc1ccc(Nc2nc(O)nc(Cc3c(Cl)cccc3Cl)n2)cc1` [Compound 10], for which the melting point is more than 300 °C.
Consider `N#Cc1ccc(Nc2nc(Cc3c(Cl)cccc3Cl)nc(N3CC(O)CO3)n2)cc1` (stereo not shown) [Compound 11], for which, in series [1], the “SI (selectivity index, ratio of CC50 to IC50)” value came out at 25138 and the IC50 is 0.00251 µM. For the same compound, half-maximal cytotoxicity in series [2] (CC50) was put at 63.1 µM.
Turning to `COCc1nc(Nc2ccc(C#N)cc2)nc(Oc2c(C)cc(C#N)cc2C)c1Br` [Compound 12, 4-[[[5-bromo-4-(4-cyano-2,6-dimethylphenoxy)-6-methoxymethyl]-2-pyrimidinyl]amino]benzonitrile], the melting point lay within 198 to 199 °C. In series [1], the “SI (selectivity index, ratio of CC50 to IC50)” value is recorded as more than 25000 and the IC50 came to 0.004 µM. The compound also yielded a CC50 in series [2] of more than 100 µM.
Consider `Cc1cc(C#N)cc(C)c1Oc1nc(Nc2ccc(C#N)cc2)nc(CO)c1Br` [Compound 13, 4-[[[5-bromo-4-(4-cyano-2,6-dimethylphenoxy)-6-hydroxymethyl]-2-pyrimidinyl]amino]benzonitrile], for which, in series [1], the “SI (selectivity index, ratio of CC50 to IC50)” value was more than 25000 and the IC50 was determined as 0.004 µM. In addition, the 50% cytotoxic concentration (CC50) in series [2] is more than 100 µM.
As to `N#Cc1ccc(Nc2nc(CO)cc(Oc3c(Br)cc(C#N)cc3Br)n2)cc1` [Compound 14], in series [1], the “SI (selectivity index, ratio of CC50 to IC50)” value came out at 2500 and the IC50 turned out to be 0.004 µM. In series [2], this compound registered a CC50 of more than 10 µM.
Consider `N#Cc1ccc(Nc2nc(CO)c(Br)c(Oc3c(Br)cc(C#N)cc3Br)n2)cc1` [Compound 16, 4-[[[5-bromo-4-(4-cyano-2,6-dibromophenoxy)-6-hydroxymethyl]2-pyrimidinyl]amino]benzonitrile], for which, in series [1], the “SI (selectivity index, ratio of CC50 to IC50)” value is recorded as more than 39841 and the IC50 came to 0.0251 µM. In series [2], this compound gave a cytotoxic concentration (CC50) of more than 100 µM.
In the case of `Cc1cc(C)c(Nc2nc(Nc3ccc(C#N)cc3)nc(C(N)=O)n2)c(C)c1` [Compound 19, 6-[(4-cyanophenyl)amino]-4-[(2,4,6-trimethylphenyl)amino]-1,3,5-triazine-2-carboxamide], in series [1], the “SI (selectivity index, ratio of CC50 to IC50)” value is listed as 3162 and the IC50 is 0.00126 µM. In series [2], this compound returned a cytotoxic concentration (CC50) of 3.98 µM.
In turn, `Cc1cc(C#N)cc(C)c1Nc1cc(C(F)(F)F)nc(Nc2ccc(C#N)cc2)n1` [Compound 33, 4-[[[6-trifluoromethyl-2-(4-cyanophenylamino)]-4-pyrimidinyl]amino]-3,5-dimethylbenzonitrile] yielded a melting point of 249 to 251 °C. Further, in series [1], the “SI (selectivity index, ratio of CC50 to IC50)” value was found to be 1586 and the IC50 was 0.00316 µM. Also, the CC50 in series [2] came to 5.01 µM.
As for `N#Cc1ccc(Nc2nc(Cc3c(Cl)cccc3Cl)nc(N3CCC(=O)O3)n2)cc1` [Compound 35], in series [1], the “SI (selectivity index, ratio of CC50 to IC50)” value is listed as 794 and the IC50 was found to be 0.0631 µM. This compound also had a CC50 in series [2] of 50.1 µM.
`N#Cc1ccc(Nc2nc(Cc3c(Cl)cccc3Cl)nc(N3C(=O)CCCC3=O)n2)cc1` [Compound 37] came in with a melting point of 278 to 282 °C.
`N#Cc1ccc(Nc2nc(Cc3c(Cl)cccc3Cl)nc(C(N)=O)n2)cc1` [Compound 38] came in with a melting point of 262 to 263 °C. Further, in series [1], the “SI (selectivity index, ratio of CC50 to IC50)” value is on record as more than 39841 and the IC50 amounted to 0.00251 µM. Moreover, the CC50 in series [2] was more than 100 µM.
`N#Cc1ccc(Nc2nc(Cc3c(Cl)cccc3Cl)cc(-n3ccnc3)n2)cc1` [Compound 39] gave a melting point of 275 to 285 °C.
`NC(=O)c1ccc(Nc2nc(Cc3c(Cl)cccc3Cl)nc(C(N)=O)n2)cc1` [Compound 40]: the melting point lay in the range of 287 to 295 °C.
`Clc1cccc(Cl)c1Cc1nc(Nc2ccc(-c3nnn[nH]3)cc2)nc(-c2nnn[nH]2)n1` [Compound 42] registered a melting point of 249 to 252 °C.
As to `C=CCONc1nc(Cc2c(Cl)cccc2Cl)nc(Nc2ccc(C#N)cc2)n1` [Compound 43], in series [1], the “SI (selectivity index, ratio of CC50 to IC50)” value came to 3981 and the IC50 worked out at 0.0158 µM. Moreover, half-maximal cytotoxicity in series [2] (CC50) was put at 63.1 µM.
`N#Cc1ccc(Nc2nc(Cc3c(Cl)cccc3Cl)nc(-n3[nH]nnc3=N)n2)cc1` [Compound 46] yielded a melting point of 302 to 304 °C.
`N#Cc1ccc(Nc2nc(F)nc(Cc3c(Cl)cccc3Cl)n2)cc1` [Compound 49] registered a melting point of 199 to 201 °C.
On to `COc1ccc(Nc2nc(Oc3c(C)cc(C#N)cc3C)cc(C(N)=O)n2)cn1` [Compound 56], for which, in series [1], the “SI (selectivity index, ratio of CC50 to IC50)” value is given as 1585 and the IC50 stood at 0.0631 µM. In addition, in series [2], the CC50 is more than 100 µM.
For `Cc1cc(C#N)cc(C)c1Oc1nc(Cl)nc(Nc2ccc(C#N)cc2)n1` [Compound 60], the melting point is 260 to 265 °C.
As for `Cc1cc(C)c(Nc2cc(C(N)=O)nc(Nc3ccc(C#N)cc3)n2)c(C)c1` [Compound 61, 2-[(4-cyanophenyl)amino]-6-[(2,4,6-trimethylphenyl)amino]-4-pyrimidine carboxamide], in series [1], the “SI (selectivity index, ratio of CC50 to IC50)” value is 19968 and the IC50 worked out at 0.00251 µM. Besides, in series [2], the CC50 stood at 50.1 µM.
For `COC(=O)c1cc(Nc2c(C)cc(C)cc2C)nc(Nc2ccc(C#N)cc2)n1` [Compound 62] the same measures were 1261, 0.0063 µM and 7.94 µM.
Turning to `CNC(=O)c1cc(Nc2c(C)cc(C)cc2C)nc(Nc2ccc(C#N)cc2)n1` [Compound 63], in series [1], the “SI (selectivity index, ratio of CC50 to IC50)” value worked out at 7946 and the IC50 was 0.00501 µM. For the same compound, half-maximal cytotoxicity in series [2] (CC50) was put at 39.8 µM.
As for `COc1ccc(Nc2nc(Oc3c(C)cc(C#N)cc3C)cc(C(=O)N(C)C)n2)cn1` [Compound 65], in series [1], the “SI (selectivity index, ratio of CC50 to IC50)” value worked out at 1000 and the IC50 was found to be 0.0794 µM. The same compound returned a CC50 in series [2] of 79.4 µM.
As to `Cc1cc(C)c(Nc2cc(C(=O)N(C)C)nc(Nc3ccc(C#N)cc3)n2)c(C)c1` [Compound 66], in series [1], the “SI (selectivity index, ratio of CC50 to IC50)” value turned out to be 19950 and the IC50 was found to be 0.00159 µM. The same compound displayed a CC50 in series [2] of 31.6 µM.
Turning to `N#Cc1ccc(Nc2nc(Cl)nc(Oc3c(Cl)cc(Cl)cc3Cl)n2)cc1` [Compound 72], the melting point was in the range of 238 to 239 °C.
`Cc1cc(C#N)cc(C)c1Oc1nc(Nc2ccc(C#N)cc2)nc(CCl)c1Br` [Compound 73] returned a melting point of 238 to 240 °C.
For the compound `CNCc1nc(Nc2ccc(C#N)cc2)nc(Oc2c(C)cc(C#N)cc2C)c1Br` [Compound 74], the melting point lay in the range of 223 to 224 °C.
With `Cc1cc(C)c(Nc2nc(Nc3ccc(C#N)cc3)nc(C(N)=O)c2Br)c(C)c1` [Compound 98, 5-bromo-2-[(4-cyanophenyl)amino]-6-[(2,4,6-trimethylphenyl)amino]-4-pyrimidine carboxamide], in series [1], the “SI (selectivity index, ratio of CC50 to IC50)” value is listed as 15861 and the IC50 was determined as 0.00316 µM. In addition, in series [2], the CC50 amounted to 50.1 µM.
